# Laboratory results reported in patent US6252121A, “Metal-ligand complex catalyzed processes” (Union Carbide Chemicals & Plastics Technology Corporation, priority 1999, dated 2001).
# Key:
# [1] = Relative hydroformylation reaction rates with Ligands C and G-J
# Procedure: […]. A mixture of 1,2,3,6-tetrahydrobenzaldehyde (6 grams) and octane (4 grams, internal standard) was added to the autoclave. The reaction rate was determined by gas chromatographic analyses of the samples taken during the course of reaction.
# [2] = Hydroformylation reaction rate of rhodium/ligand catalyst; conditions: 90° C., 300 ppm Rh, ligand/rhodium 20/1
# Procedure: […] A mixture of 1,2,3,6-tetrahydrobenzaldehyde (6 grams) and octane (4 grams, internal standard) was added to the autoclave. The reaction rate was determined by gas chromatographic analyses of the samples taken during the course of reaction.
# The procedure described in Example 1 was repeated with the modification of using Ligands B-F in place of Ligand A. The reaction rates for Ligands B-F are summarized in Table 1.
# [3] = Partition of polar hydroformylation products, acetonitrile/hexane (GC); type: physicochemical; conditions: hexane/acetonitrile equal volumes
# Procedure: The efficiency of the phase separation can be measured by a partition coefficient Kp of the one or more cyclic products which is defined as follows: [formula]
# Solutions of polar hydroformylation products were prepared in acetonitrile. To each solution was added an equal volume of hexane, the mixture was vigorously shaken, allowed to settle and phase separate. The two phases were analyzed for polar aldehydes by gas chromatography.
# [4] = Miscibility of reaction products with toluene (Comparative Example); type: physicochemical; conditions: reaction at 100° C. for 24 hours; no spontaneous phase separation
# Procedure: The reaction was carried out at 100° C. for 24 hours. No spontaneous phase separation was observed upon the reaction completion.
# [5] = Tetraglyme, 90° C., L/Rh ratio 20
# [6] = hexane, 100 psi syngas (CO/H2 1:1)
compound,measurement,setting,value
COc1ccc(Op2oc3c(C(C)(C)C)cc(OC)cc3c3cc(OC)cc(C(C)(C)C)c3o2)c(C(C)(C)C)c1 [Ligand G],Relative Rate,[1]; [5],0.46
CC(C)(C)c1ccc(OP(Oc2ccc(C(C)(C)C)cc2C(C)(C)C)Oc2ccc(C(C)(C)C)cc2C(C)(C)C)c(C(C)(C)C)c1 [Ligand C],reaction rate,[2]; [6],4.0 mol/L-hr
same,reaction rate,"[2]; toluene in place of hexane, 100 psi syngas",4.4 mol/L-hr
same,Relative Rate,[1]; [5],1
C1CCC(P(C2CCCCC2)C2CCCCC2)CC1 [Ligand I],Relative Rate,"[1]; Tetraglyme, 120° C., L/Rh ratio 5",0.17
CCCCCCCCCC(C)(C)c1ccc(OP(Oc2ccc(C(C)(C)CCCCCCCCC)cc2C(C)(C)CCCCCCCCC)Oc2ccc(C(C)(C)CCCCCCCCC)cc2C(C)(C)CCCCCCCCC)c(C(C)(C)CCCCCCCCC)c1 [Ligand F],reaction rate,[2]; [6],3.3 mol/L-hr
CC(C)(C)c1cc(-c2cc(C(C)(C)C)cc(C(C)(C)C)c2Op2oc3ccccc3c3ccccc3o2)c(Op2oc3ccccc3c3ccccc3o2)c(C(C)(C)C)c1 [Ligand H],Relative Rate,"[1]; Tetraglyme, 90° C., L/Rh ratio 4",0.34
CCC(C)(C)c1ccc(OP(Oc2ccc(C(C)(C)CC)cc2C(C)(C)CC)Oc2ccc(C(C)(C)CC)cc2C(C)(C)CC)c(C(C)(C)CC)c1 [Ligand D],reaction rate,[2]; [6],3.6 mol/L-hr
CC(C)(c1ccccc1)c1ccc(OP(Oc2ccc(C(C)(C)c3ccccc3)cc2C(C)(C)c2ccccc2)Oc2ccc(C(C)(C)c3ccccc3)cc2C(C)(C)c2ccccc2)c(C(C)(C)c2ccccc2)c1 [Ligand A],reaction rate,[2]; [6],2.5 mol/L-hr
O=S(=O)(O)c1cccc(P(C2CCCCC2)C2CCCCC2)c1 [Ligand J],Relative Rate,"[1]; 1-Methyl-2-pyrrolidinone, 120° C., L/Rh ratio 5",0.14
3-cyano-1-cyclohexanecarboxaldehyde and 4-cyano-1-cyclohexanecarboxaldehyde [cyanocyclohexanecarboxaldehyde],Kpartition of polar product,[3]; 10 wt. %,69
CCCCCC(C)(C)c1ccc(OP(Oc2ccc(C(C)(C)CCCCC)cc2C(C)(C)CCCCC)Oc2ccc(C(C)(C)CCCCC)cc2C(C)(C)CCCCC)c(C(C)(C)CCCCC)c1 [Ligand E],reaction rate,[2]; [6],3.7 mol/L-hr
"1,3- and 1,4-cyclohexanedicarboxaldehyde",Kpartition of polar product,[3]; 5 wt. %,38
same,Kpartition of polar product,[3]; 10 wt. %,34
same,Kpartition of polar product,[3]; 20 wt. %,35
CC(C)(C)c1ccccc1OP(Oc1ccccc1C(C)(C)C)Oc1ccccc1C(C)(C)C [Ligand B],reaction rate,[2]; [6],3.4 mol/L-hr
tricyclodecane dialdehydes,miscibility with toluene,[4],completely miscible with toluene
